Laboratory results as given in patent US4415558A, “CRF And analogs” (The Salk Institute for Biological Studies, priority 1982, dated 1983).
pEC50: −log10 of the molar value. Entries after “also recorded” stand apart in the source; their conditions may differ. Where a SMILES comes first, the peptide text is derived from it. [ ]: non-standard residue; d: D form. The star is where a group is joined. Nle = CCCC[C@H](N)C(=O)O; Bz = O=C(c1ccccc1)*

Tests used:
[1] = cited from earlier work
[2] = test system: secretion of ACTH and β-endorphin; conditions: cited from earlier work
[3] = test system: cultured rat pituitary cells; assay: Secretion of ACTH and β-endorphin by cultured rat pituitary cells; type: cell-based; conditions: for Stimulation of secretion of ACTH and β-END-LI (in words): general procedure set forth in Example III, in vitro or in vivo not specified
Procedure: (§1) The synthetic and the natural CRF were examined for their effects on the secretion of ACTH and β-endorphin in vitro and the synthetic CRF was also examined in vivo. The high potency of synthetic and natural CRF to stimulate the secretion of ACTH and β-endorphin by cultured rat pituitary cells was measured. […] The secretory response to maximal (>5 nM) concentrations of CRF is at a plateau level. In vivo doses from 30 ng to 3 μg/Kg of body weight rapidly elevated ACTH and β-endorphin-like (β-END-LI) secretions 5-20 fold.

[4] = test system: ACTH and β-END-LI secretion; assay: ACTH and β-END-LI secretion in vivo in rat preparations
Procedure: as §1
(§2) Plasma levels of ACTH and β-END-LI are elevated for at least 5-20 minutes following the intravenous administration of CRF to nembutal-anesthesized male rats and to quiescent male or female rats with indwelling intravenous cannulae. […] Mean cartoid blood pressure in a urethane-anesthesized rat fell from 87 to 72±2 mm Hg and remained at that level for 30 minutes following an injection equal to 3 μg CRF/Kg body weight; the subsequent administration of an injection equal to 30 μg CRF/Kg body weight lowered mean blood pressure to 42±3 mm Hg for more than 2 hours.

[5] = Blood pressure in rats (mean carotid blood pressure, urethane-anesthetized rat); type: in vivo; conditions: for Effect upon blood pressure (in words): rats; for Lowering of blood pressure (in words): general procedure set forth in Example III
Procedure: as §2

Blood pressure in dogs = type: in vivo
[6] = urethane-anesthetized rat, subsequent 30 μg CRF/Kg body weight

Compound: CC[C@H](C)[C@H](NC(=O)[C@@H](NC(=O)[C@H](CC(=O)O)NC(=O)[C@H](CC(C)C)NC(=O)[C@H](CC(C)C)NC(=O)[C@H](CC(C)C)NC(=O)[C@H](CCCNC(=N)N)NC(=O)[C@H](CC(N)=O)NC(=O)[C@H](CC(N)=O)NC(=O)[C@H](C)NC(=O)[C@H](C)NC(=O)[C@H](CCC(N)=O)NC(=O)[C@H](CCC(N)=O)NC(=O)[C@H](CCCCN)NC(=O)[C@H](CCC(=O)O)NC(=O)[C@H](CCCCN)NC(=O)[C@H](CCC(=O)O)NC(=O)[C@H](CCC(N)=O)NC(=O)[C@H](CCCCN)NC(=O)[C@H](CCC(=O)O)NC(=O)[C@@H](NC(=O)[C@H](CCC(=O)O)NC(=O)[C@@H](NC(=O)[C@H](CCSC)NC(=O)[C@H](CCCCN)NC(=O)[C@H](CCCNC(=N)N)NC(=O)[C@H](CC(C)C)NC(=O)[C@H](CC(C)C)NC(=O)[C@H](CCC(=O)O)NC(=O)[C@H](CC(C)C)NC(=O)[C@H](CO)NC(=O)[C@H](CC(C)C)NC(=O)[C@H](CC(=O)O)NC(=O)[C@@H](NC(=O)[C@H](CO)NC(=O)[C@@H](NC(=O)[C@@H]1CCCN1C(=O)[C@@H]1CCCN1C(=O)CNC(=O)[C@@H]1CCC(=O)N1)[C@@H](C)CC)[C@@H](C)CC)[C@@H](C)CC)[C@@H](C)CC)[C@@H](C)O)C(N)=O [Sauvagine]
- Lowering blood pressure in mammals (reported) [1]: lowering blood pressure in mammals
- Stimulating the secretion of ACTH and β-endorphin (reported) [2]: stimulating the secretion of ACTH and β-endorphin

Compound: CC[C@H](C)[C@H](NC(=O)[C@H](CC(=O)O)NC(=O)[C@H](CC(C)C)NC(=O)[C@H](CC(C)C)NC(=O)[C@H](CCCCN)NC(=O)[C@H](CCCNC(=N)N)NC(=O)[C@H](CC(N)=O)NC(=O)[C@H](CO)NC(=O)[C@H](Cc1c[nH]cn1)NC(=O)[C@H](C)NC(=O)[C@H](CCC(N)=O)NC(=O)[C@H](CCC(N)=O)NC(=O)[C@H](C)NC(=O)[C@H](CC(C)C)NC(=O)[C@H](CCC(N)=O)NC(=O)[C@H](CC(=O)O)NC(=O)[C@H](C)NC(=O)[C@H](CCCCN)NC(=O)[C@@H](NC(=O)[C@H](CCSC)NC(=O)[C@H](CCC(=O)O)NC(=O)[C@H](CC(C)C)NC(=O)[C@@H](NC(=O)[C@H](CCC(=O)O)NC(=O)[C@H](CCCNC(=N)N)NC(=O)[C@H](CC(C)C)NC(=O)[C@H](CC(C)C)NC(=O)[C@H](Cc1c[nH]cn1)NC(=O)[C@H](Cc1ccccc1)NC(=O)[C@@H](NC(=O)[C@H](CC(C)C)NC(=O)[C@H](CC(=O)O)NC(=O)[C@H](CC(C)C)NC(=O)[C@H](CO)NC(=O)[C@@H](NC(=O)[C@@H]1CCCN1C(=O)[C@@H]1CCCN1C(=O)[C@H](CCC(=O)O)NC(=O)[C@H](CCC(N)=O)NC(=O)[C@@H](N)CO)[C@@H](C)CC)[C@@H](C)O)C(C)C)[C@@H](C)O)C(=O)N[C@@H](C)C(N)=O [natural CRF]
- Stimulation of ACTH and β-endorphin secretion in vitro (in words) [3]: high potency
- Stimulation of ACTH and β-endorphin secretion in vitro (in words) ([3]; listed as isolated CRF): stimulate ACTH and β-endorphin activies
- Stimulation of ACTH and β-END-LI secretion in vivo (in words) [4]: stimulate ACTH and β-endorphin activies

Compound: H-Ser-Gln-Glu-Pro-Pro-Ile-Ser-Leu-Asp-Leu-Thr-Phe-His-Leu-Leu-Arg-Glu-Val- Leu-Glu-Met-Thr-Lys-Ala-Asp-Gln-Leu-Ala-Gln-Gln-Ala-His-Ser-Asn-Arg-Lys-Leu-Leu-Asp-Ile-Ala-NH2 [synthetic CRF]
- Maximal concentrations (secretory response at a plateau level) ([3]; cultured rat pituitary cells): > 5 nM
- pEC50 ([3]; cultured rat pituitary cells, concentration giving half-maximal response): ~10.00
- Minimal response, secretion of ACTH and β-endorphin ([3]; cultured rat pituitary cells, concentration giving minimal response): about 10 picomolar
- Stimulation of ACTH and β-endorphin secretion in vitro (in words) [3]: stimulate ACTH and β-endorphin activies; also recorded: high potency
- Stimulation of ACTH and β-END-LI secretion in vivo (in words) [4]: stimulate ACTH and β-endorphin activies
- Elevation of ACTH and β-endorphin-like (β-END-LI) secretions ([4]; in vivo doses from 30 ng to 3 μg/Kg of body weight): 5-20 fold
- Stimulation of ACTH and β-END-LI secretion in vivo (in words) ([4]; listed as Synthetic CRF): powerful stimulator of ACTH and β-END-LI secretion
- Time for which plasma levels of ACTH and β-END-LI are elevated ([4]; intravenous administration, nembutal-anesthetized male rats and quiescent male or female rats with indwelling intravenous cannulae): 5 to 20 min
- Effect upon blood pressure (in words) ([5]; listed as CRF): dramatic effect upon blood pressure
- Effect upon blood pressure (in words) ([5]; listed as Synthetic CRF): substantially lower blood pressure for an extended time period
- Time blood pressure remained at lowered level ([5]; urethane-anesthetized rat, 3 μg CRF/Kg body weight): 30 min
- Mean carotid blood pressure after injection ([5]; urethane-anesthetized rat, 3 μg CRF/Kg body weight, fell from 87): 72±2 mm Hg
- Duration of lowered mean blood pressure [5, 6]: more than 2 hours
- Mean blood pressure after subsequent injection [5, 6]: 42±3 mm Hg
- Effect upon blood pressure (in words) (Blood pressure in dogs): dramatic effect upon blood pressure

Compound: CC[C@H](C)[C@H](NC(=O)[C@H](CC(=O)O)NC(=O)[C@H](CC(C)C)NC(=O)[C@H](CC(C)C)NC(=O)[C@H](CCCCN)NC(=O)[C@H](CCCNC(=N)N)NC(=O)[C@H](CC(N)=O)NC(=O)[C@H](CO)NC(=O)[C@H](Cc1c[nH]cn1)NC(=O)[C@H](C)NC(=O)[C@H](CCC(N)=O)NC(=O)[C@H](CCC(N)=O)NC(=O)[C@H](C)NC(=O)[C@H](CC(C)C)NC(=O)[C@H](CCC(N)=O)NC(=O)[C@H](CC(=O)O)NC(=O)[C@H](C)NC(=O)[C@H](CCCCN)NC(=O)[C@@H](NC(=O)[C@H](CCSC)NC(=O)[C@H](CCC(=O)O)NC(=O)[C@H](CC(C)C)NC(=O)[C@@H](NC(=O)[C@H](CCC(=O)O)NC(=O)[C@H](CCCNC(=N)N)NC(=O)[C@H](CC(C)C)NC(=O)[C@H](CC(C)C)NC(=O)[C@H](Cc1c[nH]cn1)NC(=O)[C@H](CC(C)C)NC(=O)[C@@H](NC(=O)[C@H](CC(C)C)NC(=O)[C@H](CC(=O)O)NC(=O)[C@H](CC(C)C)NC(=O)[C@H](CO)NC(=O)[C@@H](NC(=O)[C@@H]1CCCN1C(=O)[C@@H]1CCCN1C(=O)[C@H](CCC(=O)O)NC(=O)[C@H](C)NC(=O)c1ccccc1)[C@@H](C)CC)[C@@H](C)O)C(C)C)[C@@H](C)O)C(=O)N[C@@H](C)C(N)=O [[Benzoyl-Ala^1, des Gln^2, Leu^12]-CRF] (Bz-AEPPISLDLTLHLLREVLEMTKADQLAQQAHSNRKLLDIA-NH2)
- Stimulation of secretion of ACTH and β-END-LI (in words) [3]: stimulates the secretion of ACTH and β-END-LI
- Lowering of blood pressure (in words) [5]: very significant lowering of blood pressure

Compound: H-SQEPPISLDLTFYLLREVLE[Nle]TKADQLAQQAHSNRKLLDIA-NH2 [[Tyr^13, Nle^21]-CRF]
- Stimulation of secretion of ACTH and β-END-LI (in words) [3]: stimulates the secretion of ACTH and β-END-LI
- Lowering of blood pressure (in words) [5]: very significant lowering of blood pressure to a greater extent than CRF

Compound: CC[C@H](C)[C@H](NC(=O)[C@H](CC(=O)O)NC(=O)[C@H](CC(C)C)NC(=O)[C@H](CC(C)C)NC(=O)[C@H](CCCCN)NC(=O)[C@H](CCCNC(=N)N)NC(=O)[C@H](CC(N)=O)NC(=O)[C@H](CO)NC(=O)[C@H](Cc1c[nH]cn1)NC(=O)[C@H](C)NC(=O)[C@H](CCC(N)=O)NC(=O)[C@H](CCC(N)=O)NC(=O)[C@H](C)NC(=O)[C@H](CC(C)C)NC(=O)[C@H](CCC(N)=O)NC(=O)[C@H](CC(=O)O)NC(=O)[C@H](C)NC(=O)[C@H](CCCCN)NC(=O)[C@@H](NC(=O)[C@H](CCSC)NC(=O)[C@H](CCC(=O)O)NC(=O)[C@H](CC(C)C)NC(=O)[C@@H](NC(=O)[C@H](CCC(=O)O)NC(=O)[C@H](CCCNC(=N)N)NC(=O)[C@H](CC(C)C)NC(=O)[C@H](CC(C)C)NC(=O)[C@H](Cc1c[nH]cn1)NC(=O)[C@H](Cc1ccccc1)NC(=O)[C@@H](NC(=O)[C@H](CC(C)C)NC(=O)[C@H](CC(=O)O)NC(=O)[C@H](CC(C)C)NC(=O)[C@H](CO)NC(=O)[C@@H](NC(=O)[C@@H]1CCCN1C(=O)[C@@H]1CCCN1C(=O)[C@H](CCC(=O)O)NC(=O)[C@H](CCC(N)=O)NC(=O)[C@@H](N)CO)[C@@H](C)CC)[C@@H](C)O)C(C)C)[C@@H](C)O)C(N)=O [[des Ala^41]-CRF] (H-SQEPPISLDLTFHLLREVLEMTKADQLAQQAHSNRKLLDI-NH2)
- Stimulation of secretion of ACTH and β-END-LI (in words) [3]: stimulates the secretion of ACTH and β-END-LI
- Lowering of blood pressure (in words) [5]: very significant lowering of blood pressure
